Measured values from US12546785B2, “IL-17F and IL-17A-specific capture agents, compositions, and methods of using and making” (Regeneron Pharmaceuticals, Inc., priority 2017, dated 2026).
Entries after “also recorded” stand apart in the source; their conditions may differ. Bridge positions count the residues as written; N and C are the ends. Square brackets hold non-standard residues; d marks the D form. Triazole bridges read from a SMILES are 1,4-linked. Peptide text beside a SMILES is read from it. * marks the point of attachment. ξ: configuration not given here. Biotinyl(3aR,4R,6aS) = O=C1N[C@@H]2[C@@H](CS[C@@H]2CCCCC(=O)*)N1; X1 = O=C(CCCCC1SC[C@H]2NC(=O)N[C@@H]12)NCCCOCCOCCOCCCN*; Lys(N3) = [N-]=[N+]=NCCCC[C@H](N)C(=O)O; dThr(3ξ) = CC(O)[C@@H](N)C(=O)O; Thr(3ξ) = CC(O)[C@H](N)C(=O)O; AEEEA = NCCOCCOCCOCC(=O)O; Pra = C#CC[C@H](N)C(=O)O

Experiments:
[1] = biological target: T1, full-length His-tagged IL-17F protein (Homo sapiens, UniProt Q96PD4); assay: Sandwich ELISA: IL-17F captured by ligand immobilized on NeutrAvidin plate; assay type: binding; settings: for binding affinity compared, in words: sandwich ELISA
T1 construct: Full-length His-tagged IL-17F protein (ab167911, Abcam) was serially diluted in Wash Buffer; purchased Abcam ab167911
T1 sequence (Q96PD4 31-163): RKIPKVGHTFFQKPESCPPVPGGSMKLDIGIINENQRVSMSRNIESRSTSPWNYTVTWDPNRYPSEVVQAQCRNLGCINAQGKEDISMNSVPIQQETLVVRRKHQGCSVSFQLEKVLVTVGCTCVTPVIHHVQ
Procedure: Sandwich ELISA. A black 96-well NeutrAvidin Coated High Binding Capacity plate (15510, Pierce) was coated with 2 μM macrocyclic peptide ligand in TBS (25 mM Tris-HCl, 150 mM NaCl, pH 7.6) for 2 h at room temperature. Biotinylated monoclonal anti-IL17F (TA319597, Origene) was coated at 4 μg/mL in TBS as a control. The plate was aspirated and then washed with TBS (5×) and Wash Buffer (0.05% (v/v) Tween-20 in PBS, 1×). Full-length His-tagged IL-17F protein (ab167911, Abcam) was serially diluted in Wash Buffer (from 800 to 0 nM) and incubated in the designated microwells for 90 min at room temperature. Microwells were aspirated and subsequently washed with Wash Buffer (10×). To detect the bound IL-17F protein, Alkaline Phosphatase (AP)-conjugated Anti-6X His tag® antibody [HIS-1] (ab49746, Abcam) was prepared at 1:10,000 dilution and added to the microwells for 1 h at room temperature. The plate was aspirated and washed with Wash Buffer (11×). AttoPhos® AP Fluorescent Substrate System (S1000, Promega) was employed to develop the microwells. Using an excitation wavelength of 430 nm, fluorescent emission at 535 nm was recorded by Beckman Coulter DTX880 photometer. Titration curves were fit using a four-parameter regression curve fitting program (Origin 8.5) to determine EC50 values.
(§1) For these assays, a dilution series of full-length His-tagged IL-17F protein was captured using the macrocyclic peptide ligands immobilized on a NeutrAvidin-coated plate.
Sandwich ELISA. These assays were performed using the same protocol that was used to evaluate the IL-17F Epitope1 targeted ligands.
as §1

[2] = tested on: trypsin; assay: Trypsin protease digestion, analytical HPLC; assay type: in vitro ADME; settings: trypsin 1 h at 37° C., analytical HPLC at 215 nm
Procedure: Bi-LF Biotin-PEG3-Cy(RSYNKX1X2) (SEQ ID NO:102)-PEG3-Cy(RRATSX1X2) (SEQ ID NO:83) (X1=azidolysine and X2=propargylglycine) was incubated with trypsin to study its susceptibility to protease digestion. Trypsin can cleave peptides and proteins on the C-terminal side of lysine and arginine L-amino acids. For this assay, test compounds were treated with trypsin protease (1 h at 37° C.) or left untreated as a control. In an Eppendorf tube, 4 μL of trypsin solution (10 μg/mL in 1 mM HCl) and 80 pmol of biligand were added to TBS for a final volume of 20 μL. The solution was incubated for 1 h at 37° C., and then further diluted with 80 μL TBS. 50 μL of each sample was injected into a Dionex Ultimate 3000 series analytical HPLC fitted with a Phenomenex Luna-C18 column, and eluted with a gradient of 10%-62% acetonitrile in 0.1% TFA (v/v) in water over 45 min. The samples were monitored at 215 nm.

[3] = biological target: T2, IL-17F protein (Homo sapiens, UniProt Q96PD4); assay: IL-17F binding in a background of human serum, surface-immobilized ligand; settings: for IL-17F binding efficiency in human serum: up to 10% (v/v) serum
T2 construct: His tag
T2 sequence (Q96PD4 31-163): T1 sequence (Q96PD4 31-163)
Description: Binding to IL-17F in 25% (v/v) serum is also detectable.
Target binding in biologically complex samples was interrogated by contacting surface-immobilized macrocycles with IL-17F protein in a background of human serum.

[4] = biological target: T3, His-tagged IL-17F Epitope1 (C48S) (Homo sapiens, UniProt Q96PD4); assay: Assay to determine orientation of macrocycle binding to IL-17F Epitope1 (point ELISA with His-tagged epitopes); settings: epitope 2 μM, unscrambled
T3 construct: made in house; host or cells: chemical peptide synthesis
Procedure: (§2) Assay to determine orientation of macrocycle binding to IL-17F Epitope1. A black 96-well NeutrAvidin Coated High Binding Capacity plate (15510, Pierce) was coated with 2 μM macrocyclic peptide ligand in TBS (pH 7.6) for 2 h at room temperature. Biotinylated monoclonal anti-IL17F (TA319597, Origene) was coated at 4 μg/mL in TBS as a control. The plate was aspirated and then washed with TBS (5×) and Wash Buffer (0.05% (v/v) Tween-20 in PBS, 1×). Chemically synthesized His-tagged IL-17F epitopes were prepared at 2 μM in Wash Buffer and incubated in the designated microwells for 90 min at room temperature. Wash Buffer without epitope was added as a control. Microwells were aspirated and subsequently washed with Wash Buffer (10×). To detect the bound IL-17F epitopes, Alkaline Phosphatase (AP)-conjugated Anti-6X His tag® antibody [HIS-1] (ab49746, Abcam) was prepared at 1:10,000 dilution and added to the microwells for 1 h at room temperature. The plate was aspirated and washed with Wash Buffer (11×). AttoPhos® AP Fluorescent Substrate System (S1000, Promega) was employed to develop the microwells. Using an excitation wavelength of 430 nm, fluorescent emission at 535 nm was recorded by Beckman Coulter DTX880 photometer. Data are shown after subtraction of the no-epitope background.
(§3) For this experiment, the IL-17F Epitope1 was re-synthesized with a His6 assay handle and C48S substitution instead of a click handle. Two additional His-tagged IL-17F epitopes were synthesized to contain strategic scrambling of the sequences either N-terminal or C-terminal to C48S (scrambled residues are shown in italics): • 1) His6-PEG3-[…] (SEQ ID NO:39); • 2) His6-PEG3-[…] (scrambled C-terminal to click handle; SEQ ID NO:40); • 3) His6-PEG3-[…] (scrambled N-terminal to click handle; SEQ ID NO:41).
(§4) In anticipation of forming a biligand with LF2 (SEQ ID NO: 28), it was important to gain insight on whether LF1 (SEQ ID NO:9) preferentially binds to the N- or C-terminus of Epitope1. Therefore, two His-tagged IL-17F epitopes were generated, scrambling the sequence either N-terminal or C-terminal to the location of the azide click handle. His6 assay handle and C48S substitution instead of a click handle. The scrambled amino acids are shown in italics. MALDI-TOF MS (m/z): calculated for C116H163N37O31 (M+H) 2571.23; found 2571.57.

[5] = tested on: His-tagged IL-17F Epitope1 (C48S); assay: as above; settings: for ELISA signal for epitope scrambled C-terminal to click handle / binding to epitope scrambled N-terminal to click handle: epitope 2 μM
Procedure: as §2, §3, §4

[6] = biological target: T2, IL-17F protein; assay: Fluorescence polarization titration in solution; assay type: binding; settings: for Kd: 5-FITC-tagged macrocycles, in solution; for standard Gibbs free energy change (ΔG°=RTlnKD) of binding to IL-17F: 25° C.
Procedure: The bonding affinities of the macrocycles were tested in solution by titrating the recombinant human IL-17F protein against fluorescein 5-isothiocyanate (5-FITC)-tagged macrocycles by fluorescence polarization. […] The structure of LA3 (SEQ ID NO:44), the lead macrocycle developed against IL-17A Epitope3, is shown below (X=PEG3-biotin). MALDI-TOF MS (m/z): calcd. for C62H98N22O13S (M+H) 1391.74; found 1392.36.

SMILES | binding affinity compared, in words ([1]; IL-17F) | susceptibility to trypsin digestion [2] | IL-17F binding efficiency in human serum [3] | ELISA signal for His-tagged IL-17F Epitope1 (C48S) [4] | ELISA signal for epitope scrambled C-terminal to click handle [5] | binding to epitope scrambled N-terminal to click handle [5] | Kd [6] [µM] | standard Gibbs free energy change (ΔG°=RTlnKD) of binding to IL-17F [6] [kcal/mol] | also measured
CC(O)[C@H]1NC(=O)[C@@H](C)NC(=O)[C@@H](CCCNC(=N)N)NC(=O)[C@@H](CCCNC(=N)N)NC(=O)[C@@H](NC(=O)COCCOCCOCCNC(=O)[C@@H]2CCCCn3cc(nn3)C[C@H](NC(=O)COCCOCCOCCNC(=O)CCCC[C@H]3SC[C@H]4NC(=O)N[C@H]43)C(=O)N[C@H](CCCNC(=N)N)C(=O)N[C@H](CO)C(=O)N[C@H](Cc3ccc(O)cc3)C(=O)N[C@H](CC(N)=O)C(=O)N[C@H](CCCCN)C(=O)N2)Cc2cn(nn2)CCCC[C@@H](C(N)=O)NC(=O)[C@@H](CO)NC1=O (stereo partly drawn) [Bi-LG, Biotin-PEG3-Cy(rsynkX1X2)-PEG3-Cy(rratsX1X2)] ({Biotinyl(3aR,4R,6aS)-AEEEA}-[Pra][dR][dS][dY][dN][dK][Lys(N3)][AEEEA][Pra][dR][dR][dA][dThr(3ξ)][dS][Lys(N3)]-NH2; triazole 1-7, 9-15) | slightly weaker binding | resistance to trypsin digestion; also recorded: resistant to trypsin digestion | – | – | – | – | – | – | –
CC(O)[C@@H]1NC(=O)[C@H](C)NC(=O)[C@@H](CCCNC(=N)N)NC(=O)[C@@H](CCCNC(=N)N)NC(=O)[C@@H](NC(=O)COCCOCCOCCNC(=O)[C@@H]2CCCCn3cc(nn3)C[C@H](NC(=O)COCCOCCOCCNC(=O)CCCC[C@H]3SC[C@H]4NC(=O)N[C@H]43)C(=O)N[C@H](CCCNC(=N)N)C(=O)N[C@@H](CO)C(=O)N[C@@H](Cc3ccc(O)cc3)C(=O)N[C@@H](CC(N)=O)C(=O)N[C@H](CCCCN)C(=O)N2)Cc2cn(nn2)CCCC[C@@H](C(N)=O)NC(=O)[C@H](CO)NC1=O (stereo partly drawn) [Bi-LS, Biotin-PEG3-Cy(rSYNkX1X2)-PEG3-Cy(rrATSX1X2)] ({Biotinyl(3aR,4R,6aS)-AEEEA}-[Pra][dR]SYN[dK][Lys(N3)][AEEEA][Pra][dR][dR]A[Thr(3ξ)]S[Lys(N3)]-NH2; triazole 1-7, 9-15) | slightly weaker binding | resistant to trypsin digestion | – | – | – | – | – | – | –
CC(O)[C@@H]1NC(=O)[C@H](C)NC(=O)[C@H](CCCNC(=N)N)NC(=O)[C@H](CCCNC(=N)N)NC(=O)[C@@H](NC(=O)COCCOCCOCCNC(=O)[C@@H]2CCCCn3cc(nn3)C[C@H](NC(=O)COCCOCCOCCNC(=O)CCCC[C@H]3SC[C@H]4NC(=O)N[C@H]43)C(=O)N[C@@H](CCCNC(=N)N)C(=O)N[C@@H](CO)C(=O)N[C@@H](Cc3ccc(O)cc3)C(=O)N[C@@H](CC(N)=O)C(=O)N[C@@H](CCCCN)C(=O)N2)Cc2cn(nn2)CCCC[C@@H](C(N)=O)NC(=O)[C@H](CO)NC1=O (stereo partly drawn) [Biotin-PEG3-Cy(RSYNKX1X2)-PEG3-Cy(RRATSX1X2)] ({Biotinyl(3aR,4R,6aS)-AEEEA}-[Pra]RSYNK[Lys(N3)][AEEEA][Pra]RRA[Thr(3ξ)]S[Lys(N3)]-NH2; triazole 1-7, 9-15) | – | trypsin digestion indeed occurred | no reduction in binding efficiency | – | – | – | – | – | bivalent interaction stronger than the other biligands ([1]; IL-17F): at least 16 times; improvement in affinity relative to the individual PCC macrocyclic ligands ([1]; IL-17F): > 100 fold; binding to IL-17F in human serum ([3]; 25% (v/v) serum): detectable
C[C@@H]1NC(=O)[C@H](CCCNC(=N)N)NC(=O)[C@H](CCCNC(=N)N)NC(=O)[C@@H](N)Cc2cn(nn2)CCCC[C@@H](C(=O)NCCCOCCOCCOCCCNC(=O)CCCCC2SC[C@H]3NC(=O)N[C@@H]23)NC(=O)[C@H](CO)NC(=O)[C@H](CCC(N)=O)NC1=O (stereo partly shown) [Cy(RRAQSX1X2), Cy(RRAQSX1X2)-PEG3-biotin] (H-[Pra]RRAQS[Lys(N3)]-X1; triazole 1-7) | – | – | – | positive ELISA signals | positive ELISA signals | Binding was destroyed | – | – | –
CC(O)[C@@H]1NC(=O)[C@H](C)NC(=O)[C@H](CCCNC(=N)N)NC(=O)[C@H](CCCNC(=N)N)NC(=O)[C@@H](N)Cc2cn(nn2)CCCC[C@@H](C(=O)NCCCOCCOCCOCCCNC(=O)CCCCC2SC[C@H]3NC(=O)N[C@@H]23)NC(=O)[C@H](CO)NC1=O (stereo partly shown) [Cy(RRATSX1X2), Cy(RRATSX1X2)-PEG3-biotin] (H-[Pra]RRA[Thr(3ξ)]S[Lys(N3)]-X1; triazole 1-7) | – | – | no reduction in IL-17F binding efficiency | positive ELISA signals | positive ELISA signals | Binding was destroyed | 0.05 ± 0.015 | -9.9 | preferred binding region within IL-17F Epitope1 ([5]; scrambled N- or C-terminus peptides): preferentially bind to the N-terminal portion of Epitope1
C=C1N[C@@H](CCCCN)C(=O)N[C@H](C(N)=O)CCCCn2cc(nn2)C[C@H](NC(=O)COCCOCCOCCNC(=O)CCCC[C@@H]2SC[C@@H]3NC(=O)N[C@@H]32)C(=O)N[C@@H](CCCNC(=N)N)C(=O)N[C@@H](CO)C(=O)N[C@@H](Cc2ccc(O)cc2)C(=O)N[C@H]1CC(N)=O [Cy(RSYNKX1X2), Biotin-PEG3-Cy(RSYNKXIX2)] | exceeds the binding affinity of the similarly assayed biotinylated monoclonal anti-IL17F | – | reduced intensity | – | – | – | 0.028 ± 0.009 | -10.3 | Kd ([1]; against His-tagged IL-17F): 0.015 µM; EC50 ([1]; surface-immobilized ligand, dilution series of His-tagged IL-17F): 0.015 ± 0.005 µM
